Reference: US20250122181A1, “BENZIMIDAZOLES AS MODULATORS OF IL-17” (Janssen Pharmaceutica NV, priority 2021, published 2025)

system: IL-17A-induced G-CSF production in human normal keratinocyte (NHK); assay: NHK Assay: IL-17A-induced G-CSF production in human normal keratinocyte; assay type: cell-based; conditions: Homo sapiens, Keratinocyte, 24 h, IL-17A 5 ng/mL, simple average if tested more than once
Procedure: IL-17A acts directly on keratinocytes through binding to dimeric receptor IL-17RA/RC and drives the production of a number of inflammatory mediators known to be elevated in psoriasis lesional tissue. IL-17A small molecule inhibitors that block the IL-17A to interact with IL-17R would inhibit the IL-17A signaling in its targeted cells such as keratinocytes. The compound functional activity is evaluated for its impact on IL-17A-induced G-CSF production in human normal keratinocyte (NHK).
Adult normal human keratinocytes are cultured in keratinocyte growth medium (Lonza) in a flask till reaching ˜90% confluence, then cells are transferred to a 384-well plate at density of 3000-4000 cell/well. Recombinant human IL-17A (Gibco PHC9174) is pre-incubated with titrated compound or DMSO for 1 h at rt then added to the cell culture plate. The final concentration of IL-17A is 5 ng/mL and DMSO is 0.2%, in the culture containing 5% FBS. Cells are cultured/treated for 24 h at 37° C. Supernatants are collected and G-CSF production is measured through HTRF technology using Human G-CSF Kit (CisBio). G-CSF concentration was extrapolated from the standard curve and IC50 is determined using GraphPad Prism. Cell viability is also evaluated using CellTiter-Glo kit (Promega) and effect of compound on cell viability is compared to DMSO control.

Compared with `CO[C@@H](CC(F)(F)F)[C@H](NC(=O)c1nonc1C1CC1)c1nc2cc(CN3C[C@@H](C(F)(F)F)NC3=O)ccc2[nH]1` (relative stereo) [Example 46, 4-Cyclopropyl-N-((1R*,2S*)-4,4,4-trifluoro-2-methoxy-1-(5-(((S)-2-oxo-4-(trifluoromethyl)imidazolidin-1-yl)methyl)-1H-benzo[d]imidazol-2-yl)butyl)-1,2,5-oxadiazole-3-carboxamide], `CO[C@H](CC(F)(F)F)[C@@H](NC(=O)c1nonc1C1CC1)c1nc2cc(CN3C[C@@H](C(F)(F)F)NC3=O)ccc2[nH]1` (single isomer, unassigned) [Example 45, 4-Cyclopropyl-N-((1S*,2R*)-4,4,4-trifluoro-2-methoxy--(5-(((S)-2-oxo-4-(trifluoromethyl)imidazolidin-1-yl)methyl)-1H-benzo[d]imidazol-2-yl)butyl)-1,2,5-oxadiazole-3-carboxamide] is higher in IC50: < 0.05 µM for the first, 0.05 to 0.1 µM for the second.

Compared with `CO[C@H](CC(F)(F)F)[C@H](NC(=O)c1nonc1C)c1nc2cc(CN3C[C@@H](C(F)(F)F)NC3=O)ccc2[nH]1` (relative stereo) [Example 90, 4-Methyl-N-((1R*,2R*)-4,4,4-trifluoro-2-methoxy-1-(5-(((S)-2-oxo-4-(trifluoromethyl)imidazolidin-1-yl)methyl)-1H-benzo[d]imidazol-2-yl)butyl)-1,2,5-oxadiazole-3-carboxamide], `CO[C@@H](CC(F)(F)F)[C@H](NC(=O)c1nonc1C)c1nc2cc(CN3C[C@@H](C(F)(F)F)NC3=O)ccc2[nH]1` (relative stereo) [Example 91, 4-Methyl-N-((1R*,2S*)-4,4,4-trifluoro-2-methoxy-1-(5-(((S)-2-oxo-4-(trifluoromethyl)imidazolidin-1-yl)methyl)-1H-benzo[d]imidazol-2-yl)butyl)-1,2,5-oxadiazole-3-carboxamide] is lower in IC50: > 0.1 µM for the first, < 0.05 µM for the second. The second is the more potent here.

`COCC(c1ccc2[nH]c([C@H](COC(C)(C)C(F)(F)F)NC(=O)c3nonc3C)nc2c1)N1C[C@@](C)(C(F)(F)F)NC1=O` (single isomer, unassigned) [Example 63, N—((R)-1-(5-((R*)-2-Methoxy-1-((S)-4-methyl-2-oxo-4-(trifluoromethyl)imidazolidin-1-yl)ethyl)-1H-benzo[d]imidazol-2-yl)-2-((1,1,1-trifluoro-2-methylpropan-2-yl)oxy)ethyl)-4-methyl-1,2,5-oxadiazole-3-carboxamide] and `Cc1nonc1C(=O)N[C@@H](COC(C)(C)C(F)(F)F)c1nc2cc([C@@H](C3CC3)N3CC(CC(F)(F)F)NC3=O)ccc2[nH]1` (single isomer, unassigned) [Example 88, N—((R)-1-(5-((R)-Cyclopropyl((R*)-2-oxo-4-(2,2,2-trifluoroethyl)imidazolidin-1-yl)methyl)-1H-benzo[d]imidazol-2-yl)-2-((1,1,1-trifluoro-2-methylpropan-2-yl)oxy)ethyl)-4-methyl-1,2,5-oxadiazole-3-carboxamide] cannot be ordered by IC50: < 0.05 µM for the first, < 0.05 µM for the second.

`COC[C@H](c1ccc2[nH]c([C@@H](NC(=O)c3nonc3C3CC3)[C@@H](C)OC3CC3)nc2c1)N1C[C@@H](C(F)(F)F)NC1=O` [Example 42, N-((1R,2R)-2-Cyclopropoxy-1-(5-((S)-2-methoxy-1-((S)-2-oxo-4-(trifluoromethyl)imidazolidin-1-yl)ethyl)-1H-benzo[d]imidazol-2-yl)propyl)-4-cyclopropyl-1,2,5-oxadiazole-3-carboxamide] and `C[C@H](O[C@H](C)[C@H](NC(=O)c1nonc1C1CC1)c1nc2cc([C@@H](COC3CC3)N3C[C@@H](C(F)(F)F)NC3=O)ccc2[nH]1)C(F)(F)F` [Example 68, N-((1R,2R)-1-(5-((S)-2-Cyclopropoxy-1-((S)-2-oxo-4-(trifluoromethyl)imidazolidin-1-yl)ethyl)-1H-benzo[d]imidazol-2-yl)-2-(((S)-1,1,1-trifluoropropan-2-yl)oxy)propyl)-4-cyclopropyl-1,2,5-oxadiazole-3-carboxamide] cannot be ordered by IC50: < 0.05 µM for the first, < 0.05 µM for the second.

`COC[C@H](c1ccc2[nH]c([C@@H](NC(=O)c3nonc3C3CC3)[C@@H](C)OC3CC3)nc2c1)N1CC(F)(F)CNC1=O` [Example 43, N-((1R,2R)-2-Cyclopropoxy-1-(5-((S)-1-(5,5-difluoro-2-oxotetrahydropyrimidin-1(2H)-yl)-2-methoxyethyl)-1H-benzo[d]imidazol-2-yl)propyl)-4-cyclopropyl-1,2,5-oxadiazole-3-carboxamide] and `COC[C@H](c1ccc2[nH]c([C@@H](NC(=O)c3nonc3C)[C@@H](C)OC3CC3)nc2c1)N1CC(F)(F)CNC1=O` [Example 65, N-((1R,2R)-2-Cyclopropoxy-1-(5-((S)-1-(5,5-difluoro-2-oxotetrahydropyrimidin-1(2H)-yl)-2-methoxyethyl)-1H-benzo[d]imidazol-2-yl)propyl)-4-methyl-1,2,5-oxadiazole-3-carboxamide] cannot be ordered by IC50: < 0.05 µM for the first, < 0.05 µM for the second.

`Cc1nonc1C(=O)N[C@H](c1nc2cc([C@@H](COC3CC3)N3CC(F)(F)CNC3=O)ccc2[nH]1)[C@@H](C)O[C@@H](C)C(F)(F)F` [Example 66, N-((1R,2R)-1-(5-((S)-2-Cyclopropoxy-1-(5,5-difluoro-2-oxotetrahydropyrimidin-1(2H)-yl)ethyl)-1H-benzo[d]imidazol-2-yl)-2-(((S)-1,1,1-trifluoropropan-2-yl)oxy)propyl)-4-methyl-1,2,5-oxadiazole-3-carboxamide] and `C[C@H](O[C@H](C)[C@H](NC(=O)c1nonc1C1CC1)c1nc2cc([C@@H](COC3CC3)N3CC(F)(F)CNC3=O)ccc2[nH]1)C(F)(F)F` [Example 67, N-((1R,2R)-1-(5-((S)-2-Cyclopropoxy-1-(5,5-difluoro-2-oxotetrahydropyrimidin-1(2H)-yl)ethyl)-1H-benzo[d]imidazol-2-yl)-2-(((S)-1,1,1-trifluoropropan-2-yl)oxy)propyl)-4-cyclopropyl-1,2,5-oxadiazole-3-carboxamide] cannot be ordered by IC50: < 0.05 µM for the first, < 0.05 µM for the second.

`[2H]C1([2H])N([C@@H](c2ccc3nc([C@H](COC(C)(C)C(F)(F)F)NC(=O)c4nonc4C4CC4)[nH]c3c2)C2CC2)C(=O)NCC1(F)F` [Example 76, 4-Cyclopropyl-N—((R)-1-(5-((R)-cyclopropyl(5,5-difluoro-2-oxotetrahydropyrimidin-1(2H)-yl-6,6-d2)methyl)-1H-benzo[d]imidazol-2-yl)-2-((1,1,1-trifluoro-2-methylpropan-2-yl)oxy)ethyl)-1,2,5-oxadiazole-3-carboxamide] and `[2H]C1([2H])N([C@@H](c2ccc3nc([C@H](COC(C)(C)C(F)(F)F)NC(=O)c4nonc4C)[nH]c3c2)C2CC2)C(=O)NCC1(F)F` [Example 77, N—((R)-1-(5-((R)-Cyclopropyl(5,5-difluoro-2-oxotetrahydropyrimidin-1(2H)-yl-6,6-d2)methyl)-1H-benzo[d]imidazol-2-yl)-2-((1,1,1-trifluoro-2-methylpropan-2-yl)oxy)ethyl)-4-methyl-1,2,5-oxadiazole-3-carboxamide] cannot be ordered by IC50: < 0.05 µM for the first, < 0.05 µM for the second.

`[2H]C1([2H])NC(=O)N([C@@H](c2ccc3[nH]c([C@H](COC(C)(C)C(F)(F)F)NC(=O)c4nonc4C4CC4)nc3c2)C2CC2)C([2H])([2H])C1(F)F` [Example 78, 4-Cyclopropyl-N—((R)-1-(5-((R)-cyclopropyl(5,5-difluoro-2-oxotetrahydropyrimidin-1(2H)-yl-4,4,6,6-d4)methyl)-1H-benzo[d]imidazol-2-yl)-2-((1,1,1-trifluoro-2-methylpropan-2-yl)oxy)ethyl)-1,2,5-oxadiazole-3-carboxamide] and `[2H]C1([2H])NC(=O)N([C@@H](c2ccc3[nH]c([C@H](COC(C)(C)C(F)(F)F)NC(=O)c4ccnn4C(C)C)nc3c2)C2CC2)C([2H])([2H])C1(F)F` [Example 79, N—((R)-1-(5-((R)-Cyclopropyl(5,5-difluoro-2-oxotetrahydropyrimidin-1(2H)-yl-4,4,6,6-d4)methyl)-1H-benzo[d]imidazol-2-yl)-2-((1,1,1-trifluoro-2-methylpropan-2-yl)oxy)ethyl)-1-isopropyl-1H-pyrazole-5-carboxamide] cannot be ordered by IC50: < 0.05 µM for the first, < 0.05 µM for the second.

same assay, conditions: IL-17A 5 ng/mL, 24 h, simple average if tested more than once

`COCC(c1ccc2[nH]c([C@H](COC(C)(C)C(F)(F)F)NC(=O)c3nonc3C)nc2c1)N1C[C@@](C)(C(F)(F)F)NC1=O` (single isomer, unassigned) [Example 64, N—((R)-1-(5-((S*)-2-Methoxy-1-((S)-4-methyl-2-oxo-4-(trifluoromethyl)imidazolidin-1-yl)ethyl)-1H-benzo[d]imidazol-2-yl)-2-((1,1,1-trifluoro-2-methylpropan-2-yl)oxy)ethyl)-4-methyl-1,2,5-oxadiazole-3-carboxamide] and `Cc1nonc1C(=O)N[C@@H](COC(C)(C)C(F)(F)F)c1nc2cc([C@@H](C3CC3)N3CC(CC(F)(F)F)NC3=O)ccc2[nH]1` (single isomer, unassigned) [Example 89, N—((R)-1-(5-((R)-Cyclopropyl((S*)-2-oxo-4-(2,2,2-trifluoroethyl)imidazolidin-1-yl)methyl)-1H-benzo[d]imidazol-2-yl)-2-((1,1,1-trifluoro-2-methylpropan-2-yl)oxy)ethyl)-4-methyl-1,2,5-oxadiazole-3-carboxamide] cannot be ordered by IC50: > 0.1 µM for the first, > 0.1 µM for the second.
